From patent US8110681B2, “Compounds for the treatment of spinal muscular atrophy and other uses” (The United States of America as represented by the …, priority 2006, dated 2012) come the findings set out here.

What is called EC50 is the midpoint of the concentration-response curve. Low readings indicate greater potency, high ones weaker potency.

The subject of this experiment is SMN2-linked luciferase-reporter gene construct. As to the kind of experiment: SMN splice reporter assay (SMN2-linked luciferase reporter, Example 10). The experiment is classed as cell-based. The following applies: for maximal fold induction: read-out: SMN Splice Reporter Assay (Example 10) Avg MaxFold Increase. From the text:
Cervical carcinoma cell lines were transformed with a SMN2-linked luciferase-reporter gene construct. The reporter is designed to detect shifts in the alternative splicing of SMN2 sequences. In particular, the reporter is constructed as a fusion of the alternatively spliced sequences of the SMN2 gene and the luciferase gene. Luciferase sequences are in the correct translational reading frame only when the SMN2 sequences are spliced according to the normal SMN1 mechanism (e.g., splicing to include exon 7), which allows for translation of the stable SMN protein. Compounds were tested in the assay by administering the compound to the cell line and detecting an increase in the luciferase activity. The assay is described in greater detail in Zhang et al., Gene Ther., 8, 1532-8 (2001). Compounds were administered as described in Lunn et al, Chem. & Biol, 11, 1489-1493 (2004).
The results are reported as a fold-increase over a baseline reading of transformed cells without any test compound.
For orientation: A reporter such as luciferase makes a cellular process visible.

The mark [1] stands for this setting: SMN2-linked luciferase reporter, average.
Where [2] appears, read: maximum fold increase of reporter signal, average.
[3] abbreviates: SMN2-linked luciferase reporter, average maximum fold increase.

Read-outs that look alike come from different tables or passages of the source.

Regarding `Cc1cccc2c1CN(c1ccc(C(C)C)cc1)C2=O` [ALB-115947], the response under setting [1] was half-maximal at 114 nM (EC50). The maximal fold induction under setting [2] was 1.39.
Consider `CC(C)=Cc1ccc2c(c1)C(=O)N(c1ccc(C(C)C)cc1)C2` [ALB-115807], for which the EC50 under setting [1] was found to be 155 nM. For the same molecule, the maximal fold induction under setting [3] came to 1.3.
Turning to `CC(C(=O)OC(C)(C)C)c1ccc(N2Cc3c(C#N)cccc3C2=O)cc1` (stereo not drawn) [ALB-112350], the maximal fold induction under setting [2] came out at 1.18.
In turn, `CC(CN1CCOCC1)c1ccc(N2Cc3ccccc3C2=O)cc1` (stereo not drawn) [ALB-113758] had an EC50 under setting [1] of 1400 nM. Besides, under setting [2], the maximal fold induction was 1.29.
On to `Cc1ccc(-c2ccc3c(c2)CN(c2ccc(C(C)C(=O)OC(C)(C)C)cc2)C3=O)cc1` (stereo not drawn) [ALB-111887], for which, under setting [2], the maximal fold induction stood at 1.04.
Consider `C=Cc1ccc2c(c1)C(=O)N(c1ccc(C(C)C(=O)O)cc1)C2` (stereo not drawn) [ALB-113965], for which the EC50 under setting [1] is 79 nM. For the same molecule, the maximal fold induction under setting [2] worked out at 1.83.
On the same counts, the results for `CC(C(=O)O)c1ccc(N2Cc3cccc(-c4cccs4)c3C2=O)cc1` (stereo not drawn) [ALB-112158] are 11400 nM and 1.24.
For `CC(C#N)c1ccc(N2Cc3ccccc3C2=O)cc1` (stereo not drawn) [ALB-112330] the same measures were 259 nM and 1.46.
In the case of `CC(C(=O)OC(C)(C)C)c1ccc(N2Cc3cc(-c4ccccc4)ccc3C2=O)cc1` (stereo not drawn) [ALB-111888], the maximal fold induction under setting [2] was found to be 1.1.
With `CC(CBr)c1ccc(N2Cc3ccccc3C2=O)cc1` (stereo not drawn) [ALB-113651], it took 209 nM to reach a half-maximal effect under setting [1] (EC50). Further, under setting [2], the maximal fold induction worked out at 1.44.
As to `CC(C(=O)O)c1ccc(N2Cc3ccccc3C2=O)cc1C#N` (stereo not drawn) [ALB-112437], the maximal fold induction under setting [2] worked out at 1.09.
As to `CC(C(=O)O)c1ccc(N2Cc3ccc(I)cc3C2=O)cc1` (stereo not drawn) [ALB-115216], the EC50 under setting [1] is 75 nM. The maximal fold induction under setting [2] is 1.87.
Turning to `CC(C(=O)O)c1ccc(N2Cc3ccc(N4CCOCC4)cc3C2=O)cc1` (stereo not drawn) [ALB-114738a], the maximal fold induction under setting [2] amounted to 1.08.
The same measure, in the same setting: the same measure for `CC(C(=O)OC(C)(C)C)c1ccc(N2Cc3ccccc3C2=O)c(C#N)c1` (stereo not drawn) [ALB-112436]: 1.07; for `COc1ccc(-c2cccc3c2C(=O)N(c2ccc(C(C)C(=O)OC(C)(C)C)cc2)C3)cc1` (stereo not drawn) [ALB-112152]: 1.04.
On the same count and under the same terms, then `CC(C(=O)O)c1ccc(N2Cc3ccccc3C2=O)c(-c2ccc(Cl)cc2)c1` (stereo not drawn) [ALB-112164], with 1.05.
In the case of `CC(C(=O)O)c1ccc(N2Cc3cccc(-c4cccnc4)c3C2=O)cc1` (stereo not drawn) [ALB-112157], the EC50 under setting [1] was found to be 20500 nM. In addition, the maximal fold induction under setting [2] was found to be 1.2.
On the same counts, the results for `CCCCCCc1cccc2c1C(=O)N(c1ccc(C(C)C(=O)O)cc1)C2` (stereo not drawn) [ALB-113495] are 18300 nM and 1.35.
For `CC(C)OCC(C)c1ccc(N2Cc3ccccc3C2=O)cc1` (stereo not drawn) [ALB-114935] the same measures were 977 nM and 1.26.
Regarding `CC(C(=O)O)c1ccc(N2Cc3ccccc3C2=O)c(-c2cccnc2)c1` (stereo not drawn) [ALB-112198], under setting [2], the maximal fold induction came out at 1.12.
In the case of `CC(C(=O)OC(C)(C)C)c1ccc(N2Cc3c(cccc3-c3cccs3)C2=O)cc1` (stereo not drawn) [ALB-112191], the maximal fold induction under setting [2] came to 1.12.
With `CC(C(=O)OC(C)(C)C)c1ccc(N2Cc3ccc(NC(=O)c4ccccc4)cc3C2=O)cc1` (stereo not drawn) [ALB-111958], the maximal fold induction under setting [2] stood at 1.06.
The molecule `CCc1ccc(N2Cc3ccccc3C2=O)cc1` [ALB-114940] returned an EC50 under setting [1] of 97 nM. Further, the maximal fold induction under setting [2] came to 1.36.
With `CC(C(=O)OC(C)(C)C)c1ccc(N2Cc3ccc(C#N)cc3C2=O)cc1` (stereo not drawn) [ALB-112445], the maximal fold induction under setting [2] was 1.13.
Under setting [1], `Cc1ccc(N2Cc3ccccc3C2=O)cc1C` [ALB-115711] displayed an EC50 of 274 nM. Besides, the maximal fold induction under setting [2] was 1.33.
Turning to `COCC(C)c1ccc(N2Cc3ccc(CC(C)C)cc3C2=O)cc1` (stereo not drawn) [ALB-115976], under setting [1], the half-maximal effective concentration (EC50) came out at 179 nM. Further, the maximal fold induction under setting [2] worked out at 1.29.
Consider `CC(C(=O)OC(C)(C)C)c1ccc(N2Cc3ccc(NS(=O)(=O)c4ccc(Cl)cc4)cc3C2=O)cc1` (stereo not drawn) [ALB-112070], for which the maximal fold induction under setting [2] turned out to be 1.11.
For the molecule `CCCOc1ccc2c(c1)C(=O)N(c1ccc(C(C)C(=O)O)cc1)C2` (stereo not drawn) [ALB-114934], the EC50 under setting [1] amounted to 33 nM. Further, under setting [2], the maximal fold induction was 1.87.
Consider `Cc1ccc(-c2cccc3c2C(=O)N(c2ccc(C(C)C(=O)O)cc2)C3)cc1` (stereo not drawn) [ALB-112174], for which, under setting [2], the maximal fold induction was determined as 1.18.
Consider `Cc1ccc2c(c1)C(=O)N(c1ccc(C3CCCC3)cc1)C2` [ALB-116073], for which the maximal fold induction under setting [3] amounted to 1.08.
Molecule `COC(=O)C(C)c1ccc(N2Cc3ccccc3C2=O)cc1` (stereo not drawn) [ALB-111731] displayed an EC50 under setting [1] of 174 nM. Moreover, under setting [2], the maximal fold induction was 1.43.
With `Cc1ccc(-c2cc(C(C)C(=O)O)ccc2N2Cc3ccccc3C2=O)cc1` (stereo not drawn) [ALB-112085.], the maximal fold induction under setting [2] came to 1.08.
For `CCCc1ccc2c(c1)C(=O)N(c1ccc(C(C)C)cc1)C2` [ALB-114939], under setting [1], the EC50 amounted to 298 nM. In addition, under setting [2], the maximal fold induction is 1.43.
In turn, `CC(C(=O)OC(C)(C)C)c1ccc(N2Cc3ccc(-c4ccc(Cl)c(Cl)c4)cc3C2=O)cc1` (stereo not drawn) [ALB-112475] had an EC50 under setting [1] of 114 nM. Under setting [2], the maximal fold induction amounted to 1.05.
For `CCCc1ccc(N2Cc3ccccc3C2=O)cc1` [ALB-115499] the same measures were 83 nM and 1.27.
The molecule `O=C1c2cc3c(cc2CN1c1ccc(C2CC2)cc1)OCCO3` [ALB-117043] had an EC50 under setting [1] of 68 nM. Further, under setting [3], the maximal fold induction was 1.57.
As for `CC(C)Oc1ccc2c(c1)C(=O)N(c1ccc(C(C)C)cc1)C2` [ALB-116076], the EC50 under setting [1] was found to be 72 nM. Under setting [2], the maximal fold induction stood at 1.35.
In the case of `CC(C)c1ccc(N2Cc3cc(OC(F)F)ccc3C2=O)cc1` [ALB-118159], it took 2090 nM to reach a half-maximal effect under setting [1] (EC50). Under setting [3], the maximal fold induction worked out at 1.32.
The molecule `CC(C(=O)O)c1ccc(N2Cc3ccc(OCC4CC4)cc3C2=O)cc1` (stereo not drawn) [ALB-115500] gave a concentration giving a half-maximal response (EC50) under setting [1] of 115 nM. The maximal fold induction under setting [2] was 1.54.
`CC(C(=O)O)c1ccc(N2CC3=C(CCCC3)C2=O)cc1` (stereo not drawn) [ALB-112951] displayed an EC50 under setting [1] of 279 nM. Also, the maximal fold induction under setting [2] came to 1.79.
For `CCCCCOc1ccc2c(c1)C(=O)N(c1ccc(C(C)C(=O)O)cc1)C2` (stereo not drawn) [ALB-113494] the same measures were 1170 nM and 1.75.
Under setting [1], `CC(C)c1ccc(N2Cc3ccc4c(c3C2=O)OCO4)cc1` [ALB-117751] had an EC50 of 27 nM. In addition, under setting [3], the maximal fold induction was determined as 1.34.
Turning to `CC(C(=O)OC(C)(C)C)c1ccc(N2Cc3ccc(Br)cc3C2=O)cc1` (stereo not drawn) [ALB-112327], under setting [1], the response was half-maximal at 4210 nM (EC50). Besides, the maximal fold induction under setting [2] was 1.47.
Turning to `CC(C(=O)NS(=O)(=O)c1ccccc1)c1ccc(N2Cc3ccccc3C2=O)cc1` (stereo not drawn) [ALB-111747], the maximal fold induction under setting [2] stood at 1.04.
`C[C@@H](C(=O)O)c1ccc(N2Cc3ccccc3C2=O)cc1` [ALB-112941]: under setting [1], the EC50 came to 280 nM. Further, under setting [2], the maximal fold induction stood at 1.48.
For the molecule `CCOc1ccc2c(c1)CN(c1ccc(C(C)C)cc1)C2=O` [ALB-118276], under setting [2], the maximal fold induction was determined as 1.05.
Turning to `CCC(C(=O)O)c1ccc(N2Cc3ccccc3C2=O)cc1` (stereo not drawn) [ALB-112433], the EC50 under setting [1] stood at 4180 nM. The maximal fold induction under setting [2] was found to be 1.32.
`CC(C)Oc1ccc2c(c1)C(=O)N(c1ccc(C(C)C(=O)O)cc1)C2` (stereo not drawn) [ALB-113492]: the EC50 under setting [1] was 24 nM. The maximal fold induction under setting [2] was determined as 1.67.
